Data reported in the supplement of paper PMC10307832.

Experiments:
Experiment in all cases: relative viability (nuclei count vs DMSO), 5 days (fraction); higher = more cells survive
[1] = tested on: A-427
Summary of the method: (§1)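 Relative viability is defined as nuclei in treated wells over nuclei in vehicle wells. Duplicate plates were run and medians reported. Lung cancer cell lines in 1536-well plates were dosed by pin tool one day after seeding, with one drug or with a fixed anchor-drug dose plus five library-drug doses (not always all listed) in √10 steps, and nuclei were counted after 5 days.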

[2] = tested on: A549
Summary of the method: as §1

[3] = tested on: COR-L23
Summary of the method: as §1

[4] = tested on: EKVX
Summary of the method: as §1

[5] = tested on: LC-2-ad
Summary of the method: as §1

[6] = tested on: LCLC-97TM1
Summary of the method: as §1

[7] = tested on: LK-2
Summary of the method: as §1

[8] = tested on: LXF-289
Summary of the method: as §1

[9] = tested on: NCI-H1437
Summary of the method: as §1

[10] = tested on: NCI-H1666
Summary of the method: as §1

[11] = tested on: NCI-H1703
Summary of the method: as §1

[12] = tested on: NCI-H1792
Summary of the method: as §1

[13] = tested on: NCI-H1915
Summary of the method: as §1

[14] = tested on: NCI-H2085
Summary of the method: as §1

[15] = tested on: NCI-H2087
Summary of the method: as §1

[16] = tested on: NCI-H2126
Summary of the method: as §1

[17] = tested on: NCI-H3122
Summary of the method: as §1

[18] = tested on: NCI-H322M
Summary of the method: as §1

[19] = tested on: NCI-H460
Summary of the method: as §1

[20] = tested on: NCI-H647
Summary of the method: as §1

[21] = tested on: NCI-H727
Summary of the method: as §1

[22] = tested on: PC-14
Summary of the method: as §1

[23] = tested on: ABC-1
Summary of the method: as §1

[24] = tested on: NCI-H1563
Summary of the method: as §1

[25] = tested on: NCI-H661
Summary of the method: as §1

Nc1cccc2c1CN(C1CCC(=O)NC1=O)C2=O (centres undefined) [Lenalidomide] + CC1(C)CCC(c2ccc(Cl)cc2)=C(CN2CCN(c3ccc(C(=O)NS(=O)(=O)c4ccc(N[C@H](CCN5CCOCC5)CSc5ccccc5)c(S(=O)(=O)C(F)(F)F)c4)cc3)CC2)C1 [Navitoclax] (partner 0.5 µM)
relative viability ([1]; first compound 0.253 µM): 0.99
relative viability ([1]; first compound 2.53 µM): 0.911
relative viability ([1]; first compound 8 µM): 0.832
relative viability ([2]; first compound 0.253 µM): 1.21
relative viability ([2]; first compound 0.8 µM): 1.17
relative viability ([2]; first compound 2.53 µM): 1.21
relative viability ([2]; first compound 8 µM): 1.24
relative viability ([3]; first compound 0.253 µM): 0.986
relative viability ([3]; first compound 0.8 µM): 1.01
relative viability ([3]; first compound 2.53 µM): 0.997
relative viability ([3]; first compound 8 µM): 1.06
relative viability ([4]; first compound 0.253 µM): 0.882
relative viability ([4]; first compound 0.8 µM): 0.855
relative viability ([4]; first compound 2.53 µM): 1.13
relative viability ([4]; first compound 8 µM): 0.843
relative viability ([5]; first compound 0.253 µM): 0.448
relative viability ([5]; first compound 0.8 µM): 0.421
relative viability ([5]; first compound 2.53 µM): 0.478
relative viability ([5]; first compound 8 µM): 0.44
relative viability ([6]; first compound 0.8 µM): 0.544
relative viability ([6]; first compound 2.53 µM): 0.502
relative viability ([6]; first compound 8 µM): 0.407
relative viability ([7]; first compound 0.253 µM): 0.817
relative viability ([7]; first compound 0.8 µM): 0.85
relative viability ([7]; first compound 2.53 µM): 0.959
relative viability ([7]; first compound 8 µM): 0.709
relative viability ([8]; first compound 0.253 µM): 0.963
relative viability ([8]; first compound 0.8 µM): 0.971
relative viability ([8]; first compound 2.53 µM): 1.01
relative viability ([8]; first compound 8 µM): 1.06
relative viability ([9]; first compound 0.253 µM): 1.08
relative viability ([9]; first compound 0.8 µM): 1.09
relative viability ([9]; first compound 2.53 µM): 1.14
relative viability ([9]; first compound 8 µM): 1.14
relative viability ([10]; first compound 0.253 µM): 0.915
relative viability ([10]; first compound 0.8 µM): 0.893
relative viability ([10]; first compound 2.53 µM): 0.837
relative viability ([10]; first compound 8 µM): 0.856
relative viability ([11]; first compound 0.253 µM): 0.994
relative viability ([11]; first compound 0.8 µM): 1.28
relative viability ([11]; first compound 2.53 µM): 1.23
relative viability ([11]; first compound 8 µM): 1.23
relative viability ([12]; first compound 0.253 µM): 0.74
relative viability ([12]; first compound 0.8 µM): 0.582
relative viability ([12]; first compound 2.53 µM): 0.848
relative viability ([12]; first compound 8 µM): 0.364
relative viability ([13]; first compound 0.253 µM): 0.775
relative viability ([13]; first compound 0.8 µM): 0.782
relative viability ([13]; first compound 2.53 µM): 0.816
relative viability ([13]; first compound 8 µM): 0.835
relative viability ([14]; first compound 0.253 µM): 1.25
relative viability ([14]; first compound 0.8 µM): 1.16
relative viability ([14]; first compound 2.53 µM): 1.26
relative viability ([14]; first compound 8 µM): 1.2
relative viability ([15]; first compound 0.253 µM): 1.03
relative viability ([15]; first compound 0.8 µM): 0.971
relative viability ([15]; first compound 2.53 µM): 0.962
relative viability ([15]; first compound 8 µM): 1.06
relative viability ([16]; first compound 0.253 µM): 0.798
relative viability ([16]; first compound 0.8 µM): 0.907
relative viability ([16]; first compound 2.53 µM): 0.815
relative viability ([16]; first compound 8 µM): 0.688
relative viability ([17]; first compound 0.253 µM): 1
relative viability ([17]; first compound 0.8 µM): 1.08
relative viability ([17]; first compound 2.53 µM): 0.997
relative viability ([17]; first compound 8 µM): 1.07
relative viability ([18]; first compound 0.253 µM): 1
relative viability ([18]; first compound 0.8 µM): 1.42
relative viability ([18]; first compound 2.53 µM): 1.17
relative viability ([18]; first compound 8 µM): 0.965
relative viability ([19]; first compound 0.253 µM): 0.811
relative viability ([19]; first compound 0.8 µM): 1.28
relative viability ([19]; first compound 2.53 µM): 1.15
relative viability ([19]; first compound 8 µM): 1.13
relative viability ([20]; first compound 0.253 µM): 1.08
relative viability ([20]; first compound 0.8 µM): 1.11
relative viability ([20]; first compound 2.53 µM): 1.4
relative viability ([20]; first compound 8 µM): 1.04
relative viability ([21]; first compound 0.253 µM): 0.449
relative viability ([21]; first compound 2.53 µM): 0.387
relative viability ([21]; first compound 8 µM): 0.345
relative viability ([22]; first compound 0.253 µM): 0.907
relative viability ([22]; first compound 0.8 µM): 1.02
relative viability ([22]; first compound 2.53 µM): 1.08
relative viability ([22]; first compound 8 µM): 1.05

Nc1cccc2c1CN(C1CCC(=O)NC1=O)C2=O (centres undefined) [Lenalidomide] + COc1cc2c(Oc3ccc(NC(=O)C4(C(=O)Nc5ccc(F)cc5)CC4)cc3F)ccnc2cc1OCCCN1CCOCC1 [Foretinib] (partner 0.25 µM)
relative viability ([1]; first compound 0.253 µM): 1.11
relative viability ([1]; first compound 0.8 µM): 0.93
relative viability ([1]; first compound 2.53 µM): 1.13
relative viability ([1]; first compound 8 µM): 1.11
relative viability ([2]; first compound 0.253 µM): 0.925
relative viability ([2]; first compound 0.8 µM): 0.954
relative viability ([2]; first compound 2.53 µM): 1.04
relative viability ([2]; first compound 8 µM): 0.897
relative viability ([23]; first compound 0.253 µM): 0.977
relative viability ([23]; first compound 0.8 µM): 1.19
relative viability ([23]; first compound 2.53 µM): 1.14
relative viability ([23]; first compound 8 µM): 0.811
relative viability ([3]; first compound 0.253 µM): 0.897
relative viability ([3]; first compound 0.8 µM): 0.998
relative viability ([3]; first compound 2.53 µM): 1.08
relative viability ([3]; first compound 8 µM): 1.15
relative viability ([4]; first compound 0.253 µM): 0.806
relative viability ([4]; first compound 0.8 µM): 0.772
relative viability ([4]; first compound 2.53 µM): 0.46
relative viability ([4]; first compound 8 µM): 0.932
relative viability ([5]; first compound 0.253 µM): 0.92
relative viability ([5]; first compound 2.53 µM): 1.05
relative viability ([5]; first compound 8 µM): 0.96
relative viability ([6]; first compound 0.253 µM): 0.906
relative viability ([6]; first compound 0.8 µM): 0.991
relative viability ([6]; first compound 2.53 µM): 1
relative viability ([6]; first compound 8 µM): 0.947
relative viability ([7]; first compound 0.253 µM): 1.57
relative viability ([7]; first compound 0.8 µM): 1.17
relative viability ([7]; first compound 2.53 µM): 1.24
relative viability ([7]; first compound 8 µM): 0.847
relative viability ([8]; first compound 0.253 µM): 0.977
relative viability ([8]; first compound 0.8 µM): 1.01
relative viability ([8]; first compound 2.53 µM): 1.07
relative viability ([8]; first compound 8 µM): 1.09
relative viability ([9]; first compound 0.253 µM): 1.34
relative viability ([9]; first compound 0.8 µM): 1.25
relative viability ([9]; first compound 2.53 µM): 1.32
relative viability ([9]; first compound 8 µM): 1.46
relative viability ([24]; first compound 0.253 µM): 0.894
relative viability ([24]; first compound 0.8 µM): 0.933
relative viability ([24]; first compound 2.53 µM): 0.902
relative viability ([24]; first compound 8 µM): 0.77
relative viability ([10]; first compound 0.253 µM): 1
relative viability ([10]; first compound 2.53 µM): 1
relative viability ([10]; first compound 8 µM): 0.983
relative viability ([11]; first compound 0.253 µM): 0.328
relative viability ([11]; first compound 0.8 µM): 0.348
relative viability ([11]; first compound 2.53 µM): 0.403
relative viability ([11]; first compound 8 µM): 0.426
relative viability ([13]; first compound 0.253 µM): 1.07
relative viability ([13]; first compound 0.8 µM): 1.03
relative viability ([13]; first compound 2.53 µM): 1.14
relative viability ([13]; first compound 8 µM): 1.14
relative viability ([14]; first compound 0.253 µM): 1.04
relative viability ([14]; first compound 0.8 µM): 1.11
relative viability ([14]; first compound 2.53 µM): 0.929
relative viability ([14]; first compound 8 µM): 1.07
relative viability ([15]; first compound 0.253 µM): 0.801
relative viability ([15]; first compound 0.8 µM): 1.17
relative viability ([15]; first compound 2.53 µM): 1.17
relative viability ([15]; first compound 8 µM): 1.28
relative viability ([16]; first compound 0.253 µM): 1.33
relative viability ([16]; first compound 0.8 µM): 1.13
relative viability ([16]; first compound 2.53 µM): 1.39
relative viability ([16]; first compound 8 µM): 1.14
relative viability ([17]; first compound 0.253 µM): 0.98
relative viability ([17]; first compound 0.8 µM): 1.04
relative viability ([17]; first compound 2.53 µM): 0.915
relative viability ([17]; first compound 8 µM): 1.02
relative viability ([18]; first compound 0.253 µM): 0.962
relative viability ([18]; first compound 0.8 µM): 1.05
relative viability ([18]; first compound 2.53 µM): 1.11
relative viability ([18]; first compound 8 µM): 0.902
relative viability ([19]; first compound 0.253 µM): 0.964
relative viability ([19]; first compound 0.8 µM): 1.02
relative viability ([19]; first compound 2.53 µM): 1.14
relative viability ([19]; first compound 8 µM): 1.07
relative viability ([20]; first compound 0.253 µM): 0.856
relative viability ([20]; first compound 0.8 µM): 1.12
relative viability ([20]; first compound 2.53 µM): 1.21
relative viability ([20]; first compound 8 µM): 1.11
relative viability ([25]; first compound 0.253 µM): 0.996
relative viability ([25]; first compound 0.8 µM): 0.983
relative viability ([25]; first compound 2.53 µM): 1.01
relative viability ([25]; first compound 8 µM): 0.994
relative viability ([21]; first compound 0.253 µM): 0.904
relative viability ([21]; first compound 0.8 µM): 0.929
relative viability ([21]; first compound 2.53 µM): 1
relative viability ([21]; first compound 8 µM): 1.05
relative viability ([22]; first compound 0.253 µM): 0.945
relative viability ([22]; first compound 0.8 µM): 1.02
relative viability ([22]; first compound 2.53 µM): 1.01
relative viability ([22]; first compound 8 µM): 0.982
